The source of these data is article PMC8003391, “QSAR-Based Virtual Screening of Natural Products Database for Identification of Potent Antimalarial Hits” (Biomolecules, 2021).

Series [1] deals with P. falciparum 3D7. The series can be described thus: In vitro P. falciparum growth inhibition assay (SybrGreen), chloroquine-sensitive 3D7 strain. It is filed as cell-based, Plasmodium falciparum. To be noted: for inhibition at 5 µM: 3D7, read-out: inhibition of parasite growth. As for the experimental part:
(§1) Chloroquine-sensitive (3D7) and multi-drug-resistant (W2) P. falciparum strains were cultured following the candle jar method as described by Trager and Jensen. Briefly, parasites were maintained in RPMI 1640 medium supplemented with 10% A+ human plasma at 5% CO2 atmosphere. Ring stage synchronized cultures were obtained by two consecutive treatments with a 5% D-sorbitol solution [32] in 48 h intervals.
(§2) Parasite growth inhibition assays were conducted by distributing ring stage synchronized parasites at 2% hematocrit and 0.5% parasitemia in 96-well plates (NEST Biotechnology Co., Ltd., Wuxi, Jiangsu, China). Parasites were incubated in the presence of drugs in a two-fold 12-point serial dilution starting at 10 µM in duplicate. Chloroquine was used as an antimalarial standard. At the end of a 72 h incubation, parasitemia was determined by fluorescence reading at 490 nm excitation and 540 nm emission (BMG CLARIOstar, BMG Labtech Inc., Durham, NC, USA) using SybrGreen fluorescent dye as described by Hartwig et al.. Parasite growth inhibition was determined as a percentage relative to drug-free control. EC50 values were interpolated from log doses vs. inhibition curves in GraphPad Prism 6 (GraphPad, La Jolla, CA, USA).

In series [2] the test system is P. falciparum W2. Further details: method as in PMID 25461309. The conditions noted are these: read-out: EC50 against multi-resistant strain; cited from earlier work.
A short description of series [3]: Cytotoxicity, MTT reduction assay. It is filed as cell-based. The conditions noted are these: human. As for the experimental part: Cytotoxicity of selected compounds was evaluated using the MTT reduction assay (3-[4,5-dimethyl-thiazol-2-yl]-2,5-diphenyltetrazolium chloride). Human hepatoma (HepG2) cells were cultured in Dulbecco’s Modified Eagle Medium supplemented with gentamycin (40 mg/L) and 10% heat-inactivated fetal bovine serum at 37 °C and 5% CO2. Cells were seeded in 96-well plates (NEST Biotechnology Co., Ltd., Wuxi, Jiangsu, China) at 10^5 cells per well and incubated in the presence of a serial dilution of the drugs starting at 100 µM. After 72 h of incubation, MTT was added to the wells. The optical density was measured at 570 nm (CLARIOStar, Labtech BMG Inc, Durham, NC, USA) and cell viability was expressed as a percentage relative to the untreated control. CC50 values were calculated by plotting a log dose vs. viability curve in GraphPad Prism 6 (GraphPad, La Jolla, CA, USA). The selectivity index (SI) of the compounds was determined by the expression:SI = (HepG2 CC50)/(Pf EC50), where HepG2 CC50 corresponds to the cytotoxic concentration of compounds in HepG2 cells and Pf EC50 relates to the 50% inhibitory concentration on P. falciparum 3D7 strain.
On the technique in general: Formazan colour is commonly taken as a measure of viable cells.

In series [4] the test system is P. falciparum W2. The series can be described thus: In vitro P. falciparum growth inhibition assay (SybrGreen), multi-drug-resistant W2 strain. The series is classed as cell-based, Plasmodium falciparum. To be noted: for activity more potent than artesunate: W2, compared with artesunate EC50 = 5.7 nM. How it is done:
as §1, §2

Setting [5] is: Plasmodium falciparum, 3D7, 72 h, chloroquine-sensitive 3D7 strain, 72 h, SybrGreen, ± standard deviation, read-out: EC50 Pf3D7.
[6] abbreviates: HepG2 cells, 72 h, MTT, read-out: CC50 HepG2.
The mark [7] stands for this setting: chloroquine-sensitive 3D7 strain, 72 h, SybrGreen, ± standard deviation, read-out: EC50 Pf3D7.
Setting [8] is: Plasmodium falciparum, W2, 72 h, multi-drug-resistant W2 strain, 72 h, SybrGreen, ± standard deviation, read-out: EC50 PfW2.
The mark [9] stands for this setting: multi-drug-resistant W2 strain, 72 h, SybrGreen, ± standard deviation, read-out: EC50 PfW2.
[10] abbreviates: Plasmodium falciparum, W2, W2, text value, read-out: EC50 against P. falciparum W2.
The mark [11] stands for this setting: Plasmodium falciparum, 3D7, 3D7, text value, read-out: EC50 against P. falciparum 3D7.

Read-outs that look alike come from different tables or passages of the source.

One may read the EC50 as the midpoint of the concentration-response curve. In the case of `C[C@H]1[C@H](OC(=O)CCC(=O)O)O[C@@H]2O[C@@]3(C)CC[C@H]4[C@H](C)CC[C@@H]1[C@@]24OO3` [Artesunate, reference compound], the 50% effective concentration (EC50) in series [1] (setting [5]) is 0.0016 µM; in series [2] it was 0.0057 µM.

As usually defined, the CC50 is the concentration that lowers cell viability or growth by half. As a reminder, the inhibition is the drop in the measured response relative to a control, in per cent. As for `CCOC(=O)c1ccc2[nH]cc(C(=O)OCC)c(=O)c2c1` [LDT-588], the CC50 at 72 h in series [3] (setting [6]) came to 67 ± 2.28 µM. In addition, the values for the EC50 in series [1] (setting [5]) and in series [1] (setting [7]) were less than 5 µM and 3.84 ± 1.45 µM, respectively. Moreover, the inhibition at 5 µM in series [1] (Plasmodium falciparum, 72 h) is greater than 70%.

As to `COc1ccc(C2CC(=O)NC3=C2C(=O)C2(Oc4c(Cl)c(OC)cc(OC)c4C2=O)C(C)C3)cc1O` (stereo not drawn) [LDT-614], the CC50 at 72 h in series [3] (setting [6]) amounted to 23.6 ± 1.82 µM. The results for the 50% effective concentration (EC50) in series [4] (setting [8]) and in series [1] (setting [5]) were 5.65 ± 3.11 µM and 5.26 ± 0.52 µM, respectively. Besides, the inhibition at 5 µM in series [1] (Plasmodium falciparum, 72 h) was greater than 70%.

`COc1cc(C2NCCc3cc(OC)c(OC)cc32)ccc1O` (stereo not drawn) [LDT-601]: the CC50 at 72 h in series [3] (setting [6]) is 21.8 ± 4.16 µM. For the same molecule, the half-maximal effective concentration (EC50) in series [4] (setting [8]) is 0.65 ± 0.47 µM; in series [1] (setting [5]) it was 6.61 ± 3.2 µM. The inhibition at 5 µM in series [1] (Plasmodium falciparum, 72 h) is greater than 70%.

The molecule `COc1ccccc1CNC(=O)C1CN2CCC1CC2Cn1cc(-c2cccc(N)c2)nn1` (stereo not drawn) [LDT-586] returned a CC50 at 72 h in series [3] of 98.6 µM. Also, the 50% effective concentration (EC50) was less than 5 µM in series [4] (setting [8]), 3.44 ± 1.3 µM in series [4] (setting [9]), less than 5 µM in series [1] (setting [5]) and 4.52 ± 0.91 µM in series [1] (setting [7]). Also, in series [1] (Plasmodium falciparum, 72 h), the inhibition at 5 µM was greater than 70%.

On to `CCN(CC)CCCC(C)Nc1ccnc2cc(Cl)ccc12` (stereo not drawn) [Chloroquine, reference compound], for which the EC50 in series [4] (Plasmodium falciparum, W2, 72 h, read-out: EC50 PfW2) worked out at 0.147 ± 0.04 µM; in series [1] (Plasmodium falciparum, 3D7, 72 h, read-out: EC50 Pf3D7) it was 0.0079 µM.

Turning to `Cn1c(=O)[nH]c2nnc(-c3ccc(Cl)cc3)nc2c1=O` [LDT-592], the CC50 at 72 h in series [3] (setting [6]) came to 17 µM. The EC50 in series [4] (setting [8]) worked out at 3.11 ± 0.54 µM; in series [1] (setting [5]) it was 9.09 ± 3.74 µM. In series [1] (Plasmodium falciparum, 72 h), the inhibition at 5 µM was greater than 70%.

For `CC(NC(=O)CCCNC(=O)CCC(=O)OC1OC2OC3(C)CCC4C(C)CCC(C1C)C24OO3)C(=O)O` (stereo not drawn) [LDT-598], in series [3] (setting [6]), the 50% cytotoxic concentration (CC50) at 72 h was 25.9 ± 1.13 µM. The values for the concentration giving a half-maximal response (EC50) in series [4] (setting [10]) and in series [1] (setting [11]) were 0.00059 µM and 0.00078 µM, respectively. The “activity more potent than artesunate” value in series [4] is “about 10 fold”. Further, the inhibition at 5 µM in series [1] (Plasmodium falciparum, 72 h) is greater than 70%.

Take `COC(CNC(=O)CCC(=O)OC1OC2OC3(C)CCC4C(C)CCC(C1C)C24OO3)OC` (stereo not drawn) [LDT-597]: in series [3] (setting [6]), the half-maximal cytotoxic concentration (CC50) at 72 h is 18.3 ± 3.51 µM. In addition, the results for the 50% effective concentration (EC50) in series [4] (setting [10]) and in series [1] (setting [11]) were 0.00056 µM and 0.00054 µM, respectively. For the same molecule, in series [4], the “activity more potent than artesunate” value is “about 10 fold”. In series [1] (Plasmodium falciparum, 72 h), the inhibition at 5 µM is greater than 70%.

`COc1ccc(C2c3[nH]c4ccccc4c3C[C@H]3C(=O)N(C4CC4)CC(=O)N23)cc1OC` (stereo partly drawn) [LDT-599]: in series [3] (setting [6]), the CC50 at 72 h worked out at 21 ± 2.51 µM. Moreover, the EC50 was less than 5 µM in series [4] (setting [8]), 2.74 ± 0.78 µM in series [4] (setting [9]), less than 5 µM in series [1] (setting [5]) and 3.68 ± 1.92 µM in series [1] (setting [7]). The inhibition at 5 µM in series [1] (Plasmodium falciparum, 72 h) is greater than 70%.
